System: pediatric subjects with acute hypoxemic respiratory failure (AHRF)
Assay: Pediatric AHRF study: adverse events, serious adverse events, deaths, discontinuations
Assay type: in vivo, human
Settings: 5 ppm
Experimental: This was a prospective, multicenter, randomized, double-blind, placebo-controlled, parallel-group study of the safety and efficacy of inhaled nitric oxide in pediatric subjects with acute hypoxemic respiratory failure (AHRF). The subjects were randomized to receive either 5 ppm inhaled nitric oxide or placebo.
Nitric Oxide for inhalation at 5 ppm was administered continuously into the inspiratory limb of the ventilator circuit in mechanically ventilated subjects using a blinded version of the INOvent® delivery system.
Subjects received 100% treatment gas (nitric oxide 5 ppm or placebo [nitrogen gas]) until Day 28 or extubation, whichever occurred first.
This was a prospective, multicenter, randomized, double-blind, placebo-controlled, Phase III study to assess the effects of nitric oxide for inhalation in the treatment of acute hypoxic respiratory failure (AHRF) in pediatric subjects. The study population consisted of male and female pediatric subjects, aged 44 weeks postconceptional age to 16 years age, who were admitted to the pediatric intensive care unit (PICU) and who required intubation because of AHRF. The inclusion/exclusion criteria are described in the Patients section below.
Standardized ventilatory management and weaning procedures were used. Ventilatory management was used based on an “open lung approach” using positive end-expiratory pressure (PEEP) to increase lung volume and limiting tidal volumes to reduce plateau pressures. Subjects received nitric oxide for inhalation at 5 ppm or placebo (100% Grade 5 nitrogen gas) into the inspiratory limb of the ventilator circuit using a blinded version of the INOvent® delivery system. The subjects were treated until Day 28 or extubation, whichever occurred first. Subjects were assessed daily using a spontaneous breathing trial, according to the institution's standard of care. Arterial blood gases (ABG), ventilator settings, methemoglobin, oxygenation index, systolic blood pressure, diastolic blood pressure, Pediatric Risk of Mortality (PRISM) III score, and subject positioning (prone or supine) were performed/recorded at specified times during the study. Selected centers also performed plasma cytokine assays, bronchoalveolar lavage fluid (BALF) assays, and a 6-month follow-up assessment.

[1] = AE with death as outcome, not suspected related to treatment
[2] = AE with death as outcome, suspected related to treatment
[3] = relationship to study treatment Not Suspected
[4] = relationship to study treatment Suspected

SMILES: [N]=O [Nitric Oxide, nitric oxide]
- Hepatic failure [1]: 0 (0.0) n (%)
- Hypotension [1]: 1 (3.8%) n (%)
- Intracranial pressure increased [1]: 0 (0.0) n (%)
- Multi-organ failure [1]: 0 (0.0) n (%)
- Pancreatitis [1]: 0 (0.0) n (%)
- Pneumonia, aspergillus [1]: 0 (0.0) n (%)
- Pulmonary hemorrhage [1]: 0 (0.0) n (%)
- Renal failure [1]: 0 (0.0) n (%)
- Renal impairment [1]: 0 (0.0) n (%)
- Sepsis [1]: 0 (0.0) n (%)
- Bradycardia [2]: 0 (0.0) n (%)
- Brain edema [2]: 0 (0.0) n (%)
- Cardiac arrest [2]: 0 (0.0) n (%)
- Diabetic ketoacidosis [2]: 0 (0.0) n (%)
- Hemolytic anemia [2]: 0 (0.0) n (%)
- Hepatic failure [2]: 0 (0.0) n (%)
- Hypotension [2]: 0 (0.0) n (%)
- Intracranial pressure increased [2]: 0 (0.0) n (%)
- Multi-organ failure [2]: 0 (0.0) n (%)
- Pancreatitis [2]: 0 (0.0) n (%)
- Pneumonia, aspergillus [2]: 0 (0.0) n (%)
- Pulmonary hemorrhage [2]: 0 (0.0) n (%)
- Renal failure [2]: 0 (0.0) n (%)
- Renal impairment [2]: 0 (0.0) n (%)
- Sepsis [2]: 0 (0.0) n (%)
- Adverse event where treatment was stopped: Bradycardia, subjects n (%) (by actual treatment received): 1 (3.8%)
- Adverse event where treatment was stopped: Hypotension, subjects n (%) (by actual treatment received): 1 (3.8%)
- Adverse event where treatment was stopped: Pulmonary hemorrhage, subjects n (%) (by actual treatment received): 0 (00) ^
- Adverse event where treatment was stopped: Sepsis, subjects n (%) (by actual treatment received): 0 (0.0)^
- Serious adverse event: Bradycardia, subjects n (%) (by actual treatment received): 1 (3.8%)
- Serious adverse event: Brain edema, subjects n (%) (by actual treatment received): 0 (0.0)
- Serious adverse event: Cardiac arrest, subjects n (%) (by actual treatment received): 0 (0.0)
- Serious adverse event: Cerebral artery occlusion, subjects n (%) (by actual treatment received): 0 (0.0)
- Serious adverse event: Diabetic ketoacidosis, subjects n (%) (by actual treatment received): 0 (0.0)
- Serious adverse event: Hemolytic anemia, subjects n (%) (by actual treatment received): 0 (0.0)
- Serious adverse event: Hemopneumothorax, subjects n (%) (by actual treatment received): 0 (0.0)
- Serious adverse event: Hemothorax, subjects n (%) (by actual treatment received): 0 (0.0)
- Serious adverse event: Hepatic failure, subjects n (%) (by actual treatment received): 0 (0.0)
- Serious adverse event: Hypotension, subjects n (%) (by actual treatment received): 1 (3.8%)
- Serious adverse event: Hypoxia, subjects n (%) (by actual treatment received): 0 (0.0)
- Serious adverse event: Intracranial pressure increased, subjects n (%) (by actual treatment received): 0 (0.0)
- Serious adverse event: Multi-organ failure, subjects n (%) (by actual treatment received): 0 (0.0)
- Serious adverse event: Pancreatitis, subjects n (%) (by actual treatment received): 0 (0.0)
- Serious adverse event: Pneumonia, aspergillus, subjects n (%) (by actual treatment received): 0 (0.0)
- Serious adverse event: Pulmonary hemorrhage, subjects n (%) (by actual treatment received): 0 (0.0)
- Serious adverse event: Renal failure, acute, subjects n (%) (by actual treatment received): 0 (0.0)
- Serious adverse event: Renal failure, subjects n (%) (by actual treatment received): 0 (0.0)
- Serious adverse event: Renal impairment, subjects n (%) (by actual treatment received): 0 (0.0)
- Serious adverse event: Respiratory failure, subjects n (%) (by actual treatment received): 0 (0.0)
- Serious adverse event: Sepsis, subjects n (%) (by actual treatment received): 0 (0.0)
- Serious adverse event: Subdural hematoma, subjects n (%) (by actual treatment received): 0 (0.0)
- Serious adverse event: Unevaluable event, subjects n (%) (by actual treatment received): 0 (0.0)
- likelihood to experience adverse events versus placebo (in words): no more likely
- overall safety and tolerability in children with AHRF (in words): safe and well tolerated
- safety profile versus placebo (methemoglobin levels, frequency of AEs, mortality rates) (in words): compare favorably
- Subjects with one or more AEs (n = 26): 16 (61.5%) n (%)
- Subjects with one or more AEs suspected to be related to study treatment (n = 26): 0 (0)^ ^ n (%)
- Subjects with one or more SAEs (n = 26): 1 (3.9%) n (%)
- Subjects with one or more severe AEs (n = 26): 2 (7.7%) n (%)
- Subjects withdrawn due to AEs (n = 26): 1 (3.9%) n (%)
- Total AEs leading to discontinuation of study treatment (n = 26): 2
- Total AEs suspected to be related to study treatment (n = 26): 0
- Total SAEs (n = 26): 2
- Total SAEs or AEs leading to discontinuation of study treatment suspected to be related to study treatment (n = 26): 0
- Total severe AEs (n = 26): 4
- Total AEs (n = 26, counted by dictionary-derived term): 52
- Adverse event where treatment was stopped: Bradycardia, subjects n (%) [3]: 1 (3.8%)
- Adverse event where treatment was stopped: Hypotension, subjects n (%) [3]: 1 (3.8%)
- Adverse event where treatment was stopped: Pulmonary hemorrhage, subjects n (%) [3]: 0 (0.0)^
- Adverse event where treatment was stopped: Sepsis, subjects n (%) [3]: 0 (0.0)^
- Serious adverse event: Bradycardia, subjects n (%) [3]: 1 (3.8%)
- Serious adverse event: Brain edema, subjects n (%) [3]: 0 (0.0)
- Serious adverse event: Cardiac arrest, subjects n (%) [3]: 0 (0.0)
- Serious adverse event: Cerebral artery occlusion, subjects n (%) [3]: 0 (0.0)
- Serious adverse event: Diabetic ketoacidosis, subjects n (%) [3]: 0 (0.0)
- Serious adverse event: Hemolytic anemia, subjects n (%) [3]: 0 (0.0)
- Serious adverse event: Hemopneumothorax, subjects n (%) [3]: 0 (0.0)
- Serious adverse event: Hemothorax, subjects n (%) [3]: 0 (0.0)
- Serious adverse event: Hepatic failure, subjects n (%) [3]: 0 (0.0)
- Serious adverse event: Hypotension, subjects n (%) [3]: 1 (3.8%)
- Serious adverse event: Hypoxia, subjects n (%) [3]: 0 (0.0)
- Serious adverse event: Intracranial pressure increased, subjects n (%) [3]: 0 (0.0)
- Serious adverse event: Multi-organ failure, subjects n (%) [3]: 0 (0.0)
- Serious adverse event: Pancreatitis, subjects n (%) [3]: 0 (0.0)
- Serious adverse event: Pneumonia, aspergillus, subjects n (%) [3]: 0 (0.0)
- Serious adverse event: Pulmonary hemorrhage, subjects n (%) [3]: 0 (0.0)
- Serious adverse event: Renal failure, acute, subjects n (%) [3]: 0 (0.0)
- Serious adverse event: Renal failure, subjects n (%) [3]: 0 (0.0)
- Serious adverse event: Renal impairment, subjects n (%) [3]: 0 (0.0)
- Serious adverse event: Respiratory failure, subjects n (%) [3]: 0 (0.0)
- Serious adverse event: Sepsis, subjects n (%) [3]: 0 (0.0)
- Serious adverse event: Subdural hematoma, subjects n (%) [3]: 0 (0.0)
- Serious adverse event: Unevaluable event, subjects n (%) [3]: 0 (0.0)
- Adverse event where treatment was stopped: Bradycardia, subjects n (%) [4]: 0 (0.0)
- Adverse event where treatment was stopped: Hypotension, subjects n (%) [4]: 0 (0.0)
- Adverse event where treatment was stopped: Pulmonary hemorrhage, subjects n (%) [4]: 0 (0.0)
- Adverse event where treatment was stopped: Sepsis, subjects n (%) [4]: 0 (0.0)
- Serious adverse event: Bradycardia, subjects n (%) [4]: 0 (0.0)
- Serious adverse event: Brain edema, subjects n (%) [4]: 0 (0.0)
- Serious adverse event: Cardiac arrest, subjects n (%) [4]: 0 (0.0)
- Serious adverse event: Cerebral artery occlusion, subjects n (%) [4]: 0 (0.0)
- Serious adverse event: Diabetic ketoacidosis, subjects n (%) [4]: 0 (0.0)
- Serious adverse event: Hemolytic anemia, subjects n (%) [4]: 0 (0.0)
- Serious adverse event: Hemopneumothorax, subjects n (%) [4]: 0 (0.0)
- Serious adverse event: Hemothorax, subjects n (%) [4]: 0 (0.0)
- Serious adverse event: Hepatic failure, subjects n (%) [4]: 0 (0.0)
